How the values were obtained:
GSK3β = GSK3β (Homo sapiens, UniProt P49841); assay: GSK3beta assay (SPA, biotinylated phosphorylated CREB peptide, ATP-P33); assay type: biochemical; conditions: -log IC50 (M); 19 nM GSK3β, 5 μM biotinylated phosphorylated CREB peptide, 1 μM ATP, 25° C., one hour
Experimental: GSK3beta assays were performed at 25° C. in a 100 μl reaction volume of 25 mM Tris (pH 7.4) containing 10 mM MgCl2, 1 mM DTT, 0.1 mg/ml BSA, 5% glycerol and containing 19 nM GSK3β, 5 μM biotinylated phosphorylated CREB peptide, 1 μM ATP, 2 nM ATP-P^33 and a suitable amount of a test compound of formula (I) or (I′). After one hour, the reaction was terminated by adding 70 μl of Stop mix (1 mM ATP, 18 mg/ml streptavidin coated PVT SPA bead pH 11.0). The beads to which the phosphorylated CREB peptide is attached were allowed to settle for 30 minutes and the radioactivity of the beads was counted in a microtiterplate scintillation counter and compared with the results obtained in a control experiment (without the presence of a test compound) in order to determine the percentage of GSK3β inhibition. The IC50 value, i.e. the concentration (M) of the test compound at which 50% of GSK3β is inhibited, was calculated from the dose response curve obtained by performing the above-described GSK3β assay in the presence of different amounts of the test compound.

Chain of GSK3β (P49841 whole entry, species assumed): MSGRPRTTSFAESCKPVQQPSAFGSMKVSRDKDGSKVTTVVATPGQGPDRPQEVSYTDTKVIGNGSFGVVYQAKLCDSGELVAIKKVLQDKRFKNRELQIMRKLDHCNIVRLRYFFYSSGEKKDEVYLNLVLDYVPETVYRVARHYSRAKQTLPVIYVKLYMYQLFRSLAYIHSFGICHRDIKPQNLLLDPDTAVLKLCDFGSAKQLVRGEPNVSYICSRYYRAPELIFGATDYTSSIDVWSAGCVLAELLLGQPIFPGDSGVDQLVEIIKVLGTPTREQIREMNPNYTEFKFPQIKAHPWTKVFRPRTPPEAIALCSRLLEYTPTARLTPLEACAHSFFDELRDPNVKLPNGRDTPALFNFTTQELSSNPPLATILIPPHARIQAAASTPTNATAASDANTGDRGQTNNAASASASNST

SMILES	melting point	IC50 (GSK3β)
N#Cc1ccc(Nc2nccc(C(N)=O)n2)cc1OCc1ccccc1 [Compound 2, 2-[[4-cyano-3-(phenylmethoxy)phenyl]amino]-4-pyrimidinecarboxamide]	–	5.01e-08 M
CN(C)S(=O)(=O)Nc1cccc(COc2cc(Nc3nccc(C(N)=O)n3)ccc2C#N)c1 [Compound 8]	–	2.09e-08 M
Cc1cc(C)cc(COc2cc(Nc3nccc(C(N)=O)n3)ccc2C#N)c1 [Compound 10]	–	1.1e-07 M
COc1ccc(COc2cc(Nc3nccc(C(N)=O)n3)ccc2C#N)cc1 [Compound 13, 2-[[4-cyano-3-[(4-methoxyphenyl)methoxy]phenyl]amino]-4-pyrimidinecarboxamide]	–	5.25e-08 M
N#Cc1ccc(Nc2nccc(C(N)=O)n2)cc1OCCC1COc2ccccc2O1 (centres unmarked) [Compound 14]	–	1.38e-07 M
N#Cc1ccc(Nc2nccc(C(N)=O)n2)cc1OCCOc1ccc(F)cc1F [Compound 17]	–	2.45e-07 M
N#Cc1ccc(Nc2nccc(C(N)=O)n2)cc1OCCCc1ccccc1 [Compound 18]	–	5.75e-08 M
N#Cc1ccc(Nc2nccc(C(N)=O)n2)cc1OCc1nc2ccccc2s1 [Compound 19]	–	4.57e-07 M
N#Cc1ccc(Nc2nccc(C(N)=O)n2)cc1OCc1cccc2ccccc12 [Compound 23]	–	8.13e-08 M
CCn1ccnc1COc1cc(Nc2nccc(C(N)=O)n2)ccc1C#N [Compound 24]	–	4.79e-08 M
COc1ccccc1COc1cc(Nc2nccc(C(N)=O)n2)ccc1C#N [Compound 30, 2-[[4-cyano-3-[(2-methoxyphenyl)methoxy]phenyl]amino]-4-pyrimidinecarboxamide]	–	4.68e-08 M
Cc1cccc(COc2cc(Nc3nccc(C(N)=O)n3)ccc2C#N)c1 [Compound 32]	–	6.46e-08 M
Cc1ccccc1COc1cc(Nc2nccc(C(N)=O)n2)ccc1C#N [Compound 34]	–	1.78e-07 M
N#Cc1ccc(Nc2nccc(C(N)=O)n2)cc1OCc1cccc(C(F)(F)F)c1 [Compound 36]	–	4.07e-07 M

More lines, now with the values ahead:

melting point	IC50 (GSK3β)	SMILES
232 °C	–	N#Cc1ccc(Nc2ncccc2C(N)=O)cc1OCc1ccccc1 [Compound 1, 2-(3-benzyloxy-4-cyano-phenylamino)-nicotinamide]
–	5.5e-08 M	CNC(=O)c1ccnc(Nc2ccc(C#N)c(OCc3ccccc3)c2)n1 [Compound 3]
–	3.8e-07 M	N#Cc1ccc(Nc2nccc(C(N)=O)n2)cc1OCc1cc(C(F)(F)F)cc(C(F)(F)F)c1 [Compound 9]
–	2.63e-07 M	N#Cc1ccc(Nc2nccc(C(N)=O)n2)cc1OCCN1CCOCC1 [Compound 11]
–	8.91e-07 M	CN(C)CCOc1cc(Nc2nccc(C(N)=O)n2)ccc1C#N [Compound 12]
–	1.32e-07 M	N#Cc1ccc(Nc2nccc(C(N)=O)n2)cc1O/C=C/c1ccccc1 [Compound 15]
–	3.89e-08 M	CC(COc1cc(Nc2nccc(C(N)=O)n2)ccc1C#N)Oc1ccc(F)cc1 (centres unmarked) [Compound 16, 2-[[4-cyano-3-[2-(4-fluorophenoxy)propoxy]phenyl]amino]-4-pyrimidinecarboxamide]
–	2.51e-08 M	N#Cc1ccc(Nc2nccc(C(N)=O)n2)cc1OCc1ccc2ccccc2n1 [Compound 21]
–	2.34e-07 M	N#Cc1ccc(Nc2nccc(C(N)=O)n2)cc1OCC1CC(c2cccnc2)=NO1 (centres unmarked) [Compound 22]
–	9.12e-08 M	NC(=O)c1ccnc(Nc2cccc(OCc3ccccc3)c2)n1 [Compound 25]
–	4.37e-07 M	CCc1noc(COc2cc(Nc3nccc(C(N)=O)n3)ccc2C#N)n1 [Compound 26]
–	1.48e-07 M	N#Cc1ccc(Nc2nccc(C(N)=O)n2)cc1 [Compound 29]
–	9.55e-08 M	N#Cc1ccc(COc2cc(Nc3nccc(C(N)=O)n3)ccc2C#N)cc1 [Compound 31]
–	1.55e-07 M	Cc1ccc(COc2cc(Nc3nccc(C(N)=O)n3)ccc2C#N)cc1 [Compound 35]
–	5.5e-08 M	N#Cc1ccc(Nc2nccc(C(N)=O)n2)cc1OCc1ccc2ccccc2c1 [Compound 38, 2-[[4-cyano-3-(2-naphthalenylmethoxy)phenyl]amino]-4-pyrimidinecarboxamide]
